Results as given in ChEMBL document CHEMBL3098003, “Structure-based design of 2-aminopyridine oxazolidinones as potent and selective tankyrase inhibitors” (ACS Med Chem Lett, 2013).
Calls of active or inactive are those of the source. The calls are words filed in the database; no cut-off is given here.

What was measured:
Mus musculus [1] = assay: Toxicity in athymic nude mouse assessed as dehydration at 100 mg/kg, po bid for 8 days; type: organism-based; set-up: dose 100 mg/kg, route oral; conditions: in vivo, 192 h
Mus musculus [2] = assay: Toxicity in athymic nude mouse assessed as cold at 100 mg/kg, po bid for 8 days; type: organism-based; set-up: dose 100 mg/kg, route oral; conditions: in vivo, 192 h
[3] = Toxicity in po dosed athymic nude mouse administered bid for 8 days; type: organism-based; conditions: in vivo
[4] = Terminal plasma concentration in athymic nude mouse xenografted with human DLD1 cells at 50 mg/kg, po bid for 3 days; type: ADME, organism-based, DLD-1; set-up: dose 50 mg/kg, route oral; conditions: read-out: Cp(T)
[5] = molecular target: C-C chemokine receptor type 2 (Homo sapiens, UniProt P41597); assay: Binding affinity to CCR2 (unknown origin)
[6] = molecular target: C-X-C chemokine receptor type 2 (Homo sapiens, UniProt P25025); assay: Binding affinity to CXCR2 (unknown origin)
Cannabinoid receptor 1 = Cannabinoid receptor 1 (Homo sapiens, UniProt P21554); assay: Binding affinity to CB1 receptor (unknown origin)
Adenosine receptor A2a = Adenosine receptor A2a (Homo sapiens, UniProt P29274); assay: Binding affinity to adenosine A2A receptor (unknown origin)
[7] = molecular target: 5-hydroxytryptamine receptor 1A (Homo sapiens, UniProt P08908); assay: Binding affinity to 5-HT1A receptor (unknown origin)
[8] = molecular target: Calcium/calmodulin-dependent protein kinase type II subunit delta (Homo sapiens) (UniProt Q13557); assay: Inhibition of CAMK2D (unknown origin) at 1 uM after 1 hr
[9] = Intrinsic clearance in rat liver microsomes; type: ADME; conditions: read-out: CLH
Tankyrase 1/2 = molecular target: T1, Tankyrase 1/2 (Homo sapiens, UniProt Q9H2K2+O95271); assay: Inhibition of tankyrase in human SW480 cells assessed as axin2 accumulation after 24 hrs by Hoechst dye-based assay; type: cell-based
T1 sequence (Q9H2K2 whole entry): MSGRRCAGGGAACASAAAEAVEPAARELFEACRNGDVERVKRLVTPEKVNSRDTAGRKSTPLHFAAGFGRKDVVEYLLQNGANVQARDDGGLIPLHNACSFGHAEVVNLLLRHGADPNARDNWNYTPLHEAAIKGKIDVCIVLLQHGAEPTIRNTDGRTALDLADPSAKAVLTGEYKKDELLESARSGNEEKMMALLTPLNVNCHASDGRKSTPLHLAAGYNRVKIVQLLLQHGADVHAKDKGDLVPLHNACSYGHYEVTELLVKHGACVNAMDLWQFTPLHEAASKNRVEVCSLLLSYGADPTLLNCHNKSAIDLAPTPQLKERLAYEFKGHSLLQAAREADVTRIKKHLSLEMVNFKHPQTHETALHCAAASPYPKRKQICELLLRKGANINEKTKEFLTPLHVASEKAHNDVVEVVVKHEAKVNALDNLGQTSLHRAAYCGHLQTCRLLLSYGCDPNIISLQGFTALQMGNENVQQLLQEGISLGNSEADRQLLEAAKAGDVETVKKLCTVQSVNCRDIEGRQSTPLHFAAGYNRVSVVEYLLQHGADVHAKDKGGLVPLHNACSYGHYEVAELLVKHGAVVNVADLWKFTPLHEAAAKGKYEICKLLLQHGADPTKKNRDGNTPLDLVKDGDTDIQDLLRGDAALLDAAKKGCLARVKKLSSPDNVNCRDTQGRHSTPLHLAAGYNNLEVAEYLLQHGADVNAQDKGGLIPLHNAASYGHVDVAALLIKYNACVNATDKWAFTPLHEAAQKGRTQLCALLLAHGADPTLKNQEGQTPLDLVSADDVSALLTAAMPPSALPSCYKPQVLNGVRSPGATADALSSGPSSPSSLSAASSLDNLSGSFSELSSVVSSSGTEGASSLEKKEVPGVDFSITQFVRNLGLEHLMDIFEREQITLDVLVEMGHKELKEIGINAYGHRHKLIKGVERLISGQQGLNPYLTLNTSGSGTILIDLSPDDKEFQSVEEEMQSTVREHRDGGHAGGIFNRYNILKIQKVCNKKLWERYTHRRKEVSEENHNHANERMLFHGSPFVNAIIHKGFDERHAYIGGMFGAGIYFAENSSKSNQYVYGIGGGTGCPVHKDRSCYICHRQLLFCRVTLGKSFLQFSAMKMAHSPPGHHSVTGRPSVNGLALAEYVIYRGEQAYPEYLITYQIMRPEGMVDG
T1 sequence (O95271 whole entry): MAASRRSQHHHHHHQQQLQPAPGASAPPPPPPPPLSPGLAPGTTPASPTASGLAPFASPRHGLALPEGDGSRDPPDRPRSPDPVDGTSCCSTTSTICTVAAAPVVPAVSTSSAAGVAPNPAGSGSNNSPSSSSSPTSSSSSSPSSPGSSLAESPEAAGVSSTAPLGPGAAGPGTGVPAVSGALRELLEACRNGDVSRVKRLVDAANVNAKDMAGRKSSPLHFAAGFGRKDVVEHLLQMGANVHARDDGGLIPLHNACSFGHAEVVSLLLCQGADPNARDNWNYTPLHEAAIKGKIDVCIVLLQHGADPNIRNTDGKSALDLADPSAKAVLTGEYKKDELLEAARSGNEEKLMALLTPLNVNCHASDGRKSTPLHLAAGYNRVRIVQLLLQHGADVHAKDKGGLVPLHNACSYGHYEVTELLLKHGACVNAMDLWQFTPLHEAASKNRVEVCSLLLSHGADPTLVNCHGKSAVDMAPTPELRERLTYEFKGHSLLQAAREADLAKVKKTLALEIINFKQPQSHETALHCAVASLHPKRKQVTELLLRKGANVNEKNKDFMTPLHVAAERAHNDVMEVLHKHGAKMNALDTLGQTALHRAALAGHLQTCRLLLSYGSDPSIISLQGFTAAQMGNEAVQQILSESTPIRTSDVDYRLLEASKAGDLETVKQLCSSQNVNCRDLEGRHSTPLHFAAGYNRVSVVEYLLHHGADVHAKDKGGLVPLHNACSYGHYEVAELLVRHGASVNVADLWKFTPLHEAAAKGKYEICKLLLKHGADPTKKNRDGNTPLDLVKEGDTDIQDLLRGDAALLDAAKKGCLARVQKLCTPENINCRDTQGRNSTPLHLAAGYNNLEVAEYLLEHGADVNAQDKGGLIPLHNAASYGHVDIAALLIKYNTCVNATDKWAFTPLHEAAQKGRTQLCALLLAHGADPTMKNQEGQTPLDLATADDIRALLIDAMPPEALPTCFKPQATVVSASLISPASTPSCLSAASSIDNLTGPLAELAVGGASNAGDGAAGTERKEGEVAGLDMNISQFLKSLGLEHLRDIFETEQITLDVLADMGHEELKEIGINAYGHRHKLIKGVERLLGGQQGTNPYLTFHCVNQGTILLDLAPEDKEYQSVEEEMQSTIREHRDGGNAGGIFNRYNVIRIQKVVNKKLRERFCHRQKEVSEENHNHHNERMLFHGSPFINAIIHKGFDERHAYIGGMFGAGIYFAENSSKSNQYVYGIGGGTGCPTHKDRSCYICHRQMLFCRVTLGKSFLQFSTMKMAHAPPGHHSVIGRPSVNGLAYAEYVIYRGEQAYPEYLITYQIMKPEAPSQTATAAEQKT

Sequence of Calcium/calmodulin-dependent protein kinase type II subunit delta (Homo sapiens) (Q13557 whole entry): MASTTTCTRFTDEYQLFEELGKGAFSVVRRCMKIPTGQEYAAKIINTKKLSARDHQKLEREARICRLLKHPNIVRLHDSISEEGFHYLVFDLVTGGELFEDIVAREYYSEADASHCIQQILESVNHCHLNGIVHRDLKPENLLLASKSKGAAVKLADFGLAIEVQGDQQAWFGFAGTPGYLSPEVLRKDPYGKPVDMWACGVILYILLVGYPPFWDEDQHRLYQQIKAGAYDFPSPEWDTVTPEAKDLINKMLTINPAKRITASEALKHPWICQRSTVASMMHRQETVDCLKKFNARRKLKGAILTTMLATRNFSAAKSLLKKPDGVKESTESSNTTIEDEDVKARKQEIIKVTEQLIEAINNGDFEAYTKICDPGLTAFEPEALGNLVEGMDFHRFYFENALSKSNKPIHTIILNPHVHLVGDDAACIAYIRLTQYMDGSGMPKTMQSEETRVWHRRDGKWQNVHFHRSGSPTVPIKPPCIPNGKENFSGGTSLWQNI
Sequence of Adenosine receptor A2a (P29274 whole entry): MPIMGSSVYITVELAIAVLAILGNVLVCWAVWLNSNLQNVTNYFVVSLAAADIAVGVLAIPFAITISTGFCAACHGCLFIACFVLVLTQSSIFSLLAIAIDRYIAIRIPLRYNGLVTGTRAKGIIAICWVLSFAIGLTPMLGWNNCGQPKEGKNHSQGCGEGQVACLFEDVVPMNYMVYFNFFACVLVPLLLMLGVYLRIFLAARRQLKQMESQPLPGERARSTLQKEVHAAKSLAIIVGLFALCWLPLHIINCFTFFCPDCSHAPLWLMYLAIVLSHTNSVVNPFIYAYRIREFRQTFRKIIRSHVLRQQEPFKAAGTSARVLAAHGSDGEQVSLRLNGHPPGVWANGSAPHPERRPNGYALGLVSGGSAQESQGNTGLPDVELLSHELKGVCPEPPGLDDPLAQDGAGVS
Sequence of C-X-C chemokine receptor type 2 (P25025 whole entry): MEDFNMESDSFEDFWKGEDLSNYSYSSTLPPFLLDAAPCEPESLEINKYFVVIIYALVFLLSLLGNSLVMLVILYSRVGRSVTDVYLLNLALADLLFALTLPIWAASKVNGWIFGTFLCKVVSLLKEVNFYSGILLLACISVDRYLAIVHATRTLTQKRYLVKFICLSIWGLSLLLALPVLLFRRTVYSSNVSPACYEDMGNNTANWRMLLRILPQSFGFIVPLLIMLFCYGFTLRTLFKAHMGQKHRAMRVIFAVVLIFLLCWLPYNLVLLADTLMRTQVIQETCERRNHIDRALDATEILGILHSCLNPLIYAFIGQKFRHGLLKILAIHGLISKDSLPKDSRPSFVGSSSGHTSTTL
Sequence of 5-hydroxytryptamine receptor 1A (P08908 whole entry): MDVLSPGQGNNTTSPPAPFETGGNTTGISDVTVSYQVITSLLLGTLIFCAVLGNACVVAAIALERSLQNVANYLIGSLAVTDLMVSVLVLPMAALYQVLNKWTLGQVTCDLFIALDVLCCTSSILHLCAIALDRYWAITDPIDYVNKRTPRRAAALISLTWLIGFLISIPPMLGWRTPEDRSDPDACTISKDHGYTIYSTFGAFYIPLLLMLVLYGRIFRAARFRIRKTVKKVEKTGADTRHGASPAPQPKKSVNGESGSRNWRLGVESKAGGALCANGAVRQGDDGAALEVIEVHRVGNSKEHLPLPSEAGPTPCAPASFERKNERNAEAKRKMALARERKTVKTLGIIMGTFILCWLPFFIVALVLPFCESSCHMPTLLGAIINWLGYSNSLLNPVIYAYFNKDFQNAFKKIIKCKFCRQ
Sequence of C-C chemokine receptor type 2 (P41597 whole entry): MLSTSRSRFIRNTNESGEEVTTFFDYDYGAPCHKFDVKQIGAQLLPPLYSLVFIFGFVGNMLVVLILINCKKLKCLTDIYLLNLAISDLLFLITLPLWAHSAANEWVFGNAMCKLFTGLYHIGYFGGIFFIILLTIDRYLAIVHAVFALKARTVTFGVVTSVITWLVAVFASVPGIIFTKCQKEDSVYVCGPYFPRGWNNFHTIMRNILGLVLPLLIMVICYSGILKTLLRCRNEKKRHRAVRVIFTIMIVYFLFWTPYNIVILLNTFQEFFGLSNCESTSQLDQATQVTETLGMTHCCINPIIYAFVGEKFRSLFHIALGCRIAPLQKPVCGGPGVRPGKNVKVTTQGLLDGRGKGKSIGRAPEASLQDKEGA
Sequence of Cannabinoid receptor 1 (P21554 whole entry): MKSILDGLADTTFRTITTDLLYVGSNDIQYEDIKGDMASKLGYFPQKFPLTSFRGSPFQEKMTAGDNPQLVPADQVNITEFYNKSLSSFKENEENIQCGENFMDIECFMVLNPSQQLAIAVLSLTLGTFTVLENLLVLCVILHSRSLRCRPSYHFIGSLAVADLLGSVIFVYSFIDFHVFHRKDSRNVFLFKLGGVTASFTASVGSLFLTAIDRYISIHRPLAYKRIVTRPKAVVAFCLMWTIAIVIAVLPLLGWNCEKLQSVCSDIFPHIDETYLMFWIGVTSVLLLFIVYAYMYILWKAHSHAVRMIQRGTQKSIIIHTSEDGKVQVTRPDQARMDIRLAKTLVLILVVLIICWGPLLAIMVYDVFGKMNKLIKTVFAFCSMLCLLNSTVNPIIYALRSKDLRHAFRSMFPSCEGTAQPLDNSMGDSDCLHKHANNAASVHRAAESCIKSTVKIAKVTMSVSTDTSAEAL

Compound | Activity (Mus musculus [1]) | Activity (Mus musculus [2]) | MTD at 192 h [3] | concentration at 72 h [4] | IC50 [5] | IC50 [6] | IC50 (Cannabinoid receptor 1) | IC50 (Adenosine receptor A2a) | IC50 [7] | inhibition [8] | microsomal CLint [9] | EC50 (Tankyrase 1/2)
CC1(C)OC(=O)N([C@H]2CC[C@H](c3cnc(N)c(-c4ncccn4)c3)CC2)[C@H]1c1ccccc1 | Toxic | Toxic | 50 mg/kg | 120 nM | > 48.5 µM | > 48.5 µM | > 48.5 µM | > 48.5 µM | > 48.5 µM | inactive |  | 
CC1(C)OC(=O)N(c2ccc(-c3cnc(N)c(-c4ncccn4)c3)cc2)[C@H]1c1ccccc1 |  |  |  |  |  |  |  |  |  | inactive | 48 µL/min/mg | 0.709 µM
